Experimental data as given in a melting point compilation (Tetko et al.; mined from patent text by program, amines drawn as free bases though some values may be those of a salt).

| SMILES | melting point |
| --- | --- |
| CCOC(=O)NNc1ccc(N(C)CCO)nn1 | 131 to 133 °C |
| CCc1c(C(=O)C(C)C)c2ccc(-c3nnn[nH]3)cc2n1Cc1ccccc1Cl | 160 to 163 °C |
| Cc1nc[nH]c1CSCCNc1cc(=O)cc[nH]1 | 208 to 210 °C |
| O=c1[nH]c(=Cc2ccccc2[N+](=O)[O-])c(=O)[nH]c1=Cc1ccc(OCc2ccccc2)cn1 | 295 to 296 °C |
| COc1ccc(-n2nc(Sc3ccc(C#N)cc3)c(C)c(C#N)c2=O)cc1 | 195 to 198 °C |
| CCCCCCCCCCCCCCCCCCNC(=O)c1ccccc1 | 85 to 87 °C |
| CC1CC=C(c2ccc(C(C)O)cc2)CC1 (stereo not drawn) | 65 to 67 °C |
| CN(CCCSc1ccncc1)C(=O)c1cccs1 | 72 to 72.5 °C |
| C=C(C)C(C)n1c(=O)c(C(C)C)cc2c3c(cc(C)c21)C(C)C(C)(CI)O3 (stereo not drawn) | 191 to 192 °C |
| NC(=O)C12CCCC(C1)C1CCC2C1 (stereo not drawn) | 173 to 174 °C |
| Cc1on(C(=O)N(Cc2ccccc2)c2ccccc2)c(=O)c1Cl | 118 to 119 °C |
| OCC12CC3CC(CC(C3)C1O)C2 (stereo not drawn) | 172 to 174 °C |
| O=Cc1c[nH]c2c1ccc1c3cccc(Br)c3[nH]c12 | > 250 °C |
| CCCc1c2nc(C(=O)OC)cc(Br)c2cc2c(=O)cc(C(=O)OCC)oc12 | 177 to 178 °C |
| OCc1ccc(Cc2ccc3c(c2)OCO3)o1 | 68 to 69 °C |
| O=c1ccc(-c2ccc(Cl)cc2)c[nH]1 | 183 to 186 °C |
| Cc1cccc(-n2c(-c3sc(Nc4ccccc4)nc3C)nc3ccccc3c2=O)c1 | 198 to 201 °C |
| O=C(c1ccccc1)c1cccc(NC(=O)C(Cl)CCl)c1 (stereo not drawn) | 92 °C |
| Cn1cccc1CC(=O)O | 97 to 100 °C |
| C[C@H](O)[C@@H](O)[C@@H](O)C(=O)CO | 158 to 160 °C |
| CCOc1nn(-c2ccc(C(F)(F)F)cn2)cc1CCCOc1ccc(CCC(=O)O)c(OC(C)C)c1 | 104 to 105 °C |
| FC(F)(F)c1cccc(-c2ccc3nnc(C(F)(F)F)n3n2)c1 | 189 °C |
| C[Si](C)(C)C#Cc1c2ccccc2c2ccc3c(C#C[Si](C)(C)C)c4ccccc4c4ccc1c2c34 | 286 to 288 °C |
| CC1(C)C(=O)Nc2cc3oc(-c4csnn4)nc3cc21 | > 250 °C |
| CCOc1cc(-c2cc(C(F)(F)F)n3cnc(-c4ccnc(C)c4)c3n2)ccc1C(F)(F)F | 177 °C |
| O=C1CC(C(F)(F)F)Oc2cc(Cl)c(Cl)cc21 (stereo not drawn) | 94.5 to 97 °C |
| OCC1CCC(c2ccccc2)CC1 (stereo not drawn) | 47.3 to 48.5 °C |
| N#Cc1ccc(N(Cc2ccc(O)c(Br)c2)n2cnnc2)cc1-c1cc2ccccc2o1 | 147 to 148 °C |

| SMILES | melting point |
| --- | --- |
| Oc1cccc([C@H]2CCCC[C@H]2NCCCc2ccccc2)c1 (racemic) | 112 to 113 °C |
| O=C(Cc1ccccc1)Nc1ccccc1OCc1ccccc1 | 96 to 98 °C |
| CC(C)(C)c1cc2c(c(C(C)(C)C)c1)OC(=O)C2c1ccccc1 (stereo not drawn) | 116 to 119 °C |
| O=c1c(-c2nc[nH]n2)coc2ccccc12 | 160 °C |
| COc1ccc2c(CC3=C(CC(=O)O)CCC3=O)cccc2c1C(F)(F)F | 59 to 61 °C |
| O=C1Nc2cc(F)c(F)cc2N2CCNCC12 (stereo not drawn) | 226 to 228 °C |
| CCc1c(C(=O)C(N)=O)c2cc(OCCCC(=O)O)ccc2n1Cc1ccccc1 | 173 to 175 °C |
| CC(O)=C(C#N)C(=O)Nc1ccc(Br)cc1 | 213 to 214 °C |
| Cc1oc(-c2ccco2)nc1COc1ccc(Cn2cc(CCC(=O)O)c(-c3ccc(F)cc3)n2)cc1 | 125 to 126 °C |
| CCc1c(F)nc(-c2ccccc2)nc1F | 49 to 51 °C |
| CCCCCCCCCCC[C@@H](C[C@@H]1OC(=O)[C@H]1CCCCCC)OCCC(N)=O | 35 °C |
| CCOc1noc(C(=O)OCc2ccccc2)c1CC(NC(=O)OC(C)(C)C)C(=O)OCc1ccccc1 (racemic) | 142 to 144 °C |
| CCN=C(NCc1ccccc1)NN=Cc1c(Cl)cccc1Cl | 101 to 103 °C |
| CCOC(=O)c1cnoc1-c1ccc(Cl)c(F)c1 | 76 to 77 °C |
| c1coc(-c2n[nH]c3c2Cc2ccccc2-3)c1 | 195 to 197 °C |
| CCc1ccccc1CC1CNC(=O)O1 (stereo not drawn) | 104 to 105 °C |
| COc1ccc(Cl)c2c1[nH]c1c(C(=O)O)cccc12 | 328 °C |
| Cc1sc(C(=O)NN)c(S(N)(=O)=O)c1C#N | 186 to 191 °C |
| CC(=O)N1CC(=O)N(CC(N)=O)C1(C)C | 188 to 189 °C |
| CC(=O)NCCCc1c(Cl)ccc2occc12 | 82 to 83 °C |
| O=C(CCCCO)c1cccnc1 | 36 to 38 °C |
| CC(C)(C)NC(=O)[C@@H]1[C@@H](OC(=O)c2ccccc2)CCN1C(=O)OC(C)(C)C | 132 to 134 °C |
| COC(=O)/C=C/C=C(\c1ccc(OC)cc1)c1ccccc1OC | 99.5 to 102 °C |
| COc1cc2ncc(C#N)c(Nc3ccc(C)cc3O)c2cc1OC | > 250 °C |
| CCC(C#N)Oc1nc2cc(OC)cc(OC)c2cc1-c1ccc(OC)cc1 (stereo not drawn) | 89 to 90 °C |
| O=C(Cc1ccc(F)cc1F)c1ccc(I)cc1F | 81 to 82 °C |
| CCN1C(=O)N(c2cccc(C#N)c2C(F)(F)F)C(=O)C1(C)COC(=O)C(C)C (stereo not drawn) | 85 °C |

Other lines, results leading:

| melting point | SMILES |
| --- | --- |
| 172 to 173 °C | CC(=O)Oc1ccc(-c2nc3n(c2-c2ccc(OC(C)=O)cc2)CCS3)cc1 |
| 177 to 179 °C | Cc1cnc2c(c1)c(C#N)c(-c1ccc(S(=O)(=O)N[C@@H](C)C(F)(F)F)cn1)n2C1CCC1 |
| 153 to 155 °C | Cc1ccc(COc2cccc(C(=O)Nc3ccc(CN4CCCCC4)cc3)c2)cc1 |
| 132 to 133 °C | c1ccc(CN2CCOc3cccc4nc5c(c2c34)CCCC5)cc1 |
| 91.5 to 93 °C | COC(=O)C(NCc1ccccc1)c1c[nH]c2ccccc12 (stereo not drawn) |
| 168 to 170 °C | CCCCOCCOc1ccc(-c2ccc3c(c2)C=C(C(=O)Nc2ccc(S(=O)CCn4cnnc4)cc2)CCN3CC(C)C)cc1 (stereo not drawn) |
| 113 to 115 °C | O=C(Nc1ccccn1)c1cccc(-c2cccc(OCCc3ccc(Cl)cc3Cl)n2)c1 |
| 154 to 155 °C | CCSc1cc(C(=O)O)cc(N)c1Oc1ccccc1 |
| 203 to 205 °C | CCOc1cc(N)c(Cl)cc1C(=O)NC1CCN(CC2CCN(C(=O)N(C)C)CC2)CC1 |
| 200 to 203 °C | CC(C)C(NC(=O)Cn1c(-c2ccc(F)cc2)ncc(N)c1=O)C(=O)C(F)(F)F (stereo not drawn) |
| 229 to 232 °C | CSCC(C)NC(=O)c1c(I)cccc1C(=O)Nc1ccc(C2(c3ccc(Cl)cc3)CC2(F)F)cc1C (stereo not drawn) |
| 164 to 167 °C | NC(=O)Cc1cccc(Cn2ccc(OCc3ccc(F)cc3F)c(Br)c2=O)c1 |
| 153 to 155 °C | CCC(=O)OC1CC2(CCN(CCCC(=O)c3ccc(F)cc3)C2)c2ccc(C)cc21 (stereo not drawn) |
| 217 to 218 °C | CC(=O)NCC1CN(c2ccc(N3CCN(c4nnc(C5CC5)s4)CC3)c(F)c2)C(=O)O1 (stereo not drawn) |
| 219 to 223 °C | COc1cc(OC)nc(Sc2nccc(-c3ccc(Cl)cc3)c2C(=O)O)n1 |
| 84 °C | CC(C)(C)OC(=O)NCC(=O)OCCCNc1cccc2c1C(=O)c1ccccc1C2=O |
| 181 to 185 °C | O=C(O)c1ccc(Cl)nc1Nc1ccccc1 |
| 140 to 143 °C | Cc1ccc(S(=O)(=O)NN=C2CCCCCCC2)cc1 |
| 105 to 107 °C | COc1cccc(C(=O)Nc2ccc(OCCN3CCOCC3)c3ccccc23)c1 |
| 113 to 115 °C | O=C(Nc1ccc2c(c1)CN(C(=O)OCc1ccccc1)CC2)OCc1ccccc1 |
| 179 to 180 °C | CCN(CC)CCCNC(=O)Cn1ncc(-c2ccc(NS(C)(=O)=O)cc2)c1-c1ccccc1 |
| 182 to 183 °C | CCCCS(=O)(=O)N1CCC(c2ccc(O)cc2O)CC1 |

| melting point | SMILES |
| --- | --- |
| 144 °C | CC[C@@]1(C)OC(=O)C(c2ccc(F)c(F)c2)=C1c1ccc(S(C)(=O)=O)cc1 |
| 55 to 85 °C | CCc1c(C)noc1NS(=O)(=O)c1cccc2c(N(C)C)cccc12 |
| 106 to 110 °C | CS(=O)(=O)N(Cc1cccnc1)c1cccc(C(F)(F)F)c1 |
| 256 to 257 °C | COc1nc2cnccc2nc1NS(=O)(=O)c1cccc(Cl)c1Cl |
| 191 to 192 °C | O=c1c(CCCc2ccncc2)cc2cccnc2n1-c1cccc2nsnc12 |
| 198 to 199 °C | CCCCCCCNC(=O)Nc1ccccc1C(=O)NC1CCN(C2c3ccccc3COc3ccc(Br)cc32)CC1 (stereo not drawn) |
| 195 °C | CC(=O)N1CCN=C1Nc1cc(C)nn1-c1ccc(Cl)cc1C |
| 57 to 60 °C | COC(=O)Cc1ccc(OCCNC(=O)C2Cc3ccccc3N2S(=O)(=O)c2ccc(-c3cc(C)ccc3OC)cc2)cc1 (stereo not drawn) |
| 210 to 212 °C | CC(C)Nc1cccnc1N1CCN(C(=O)c2cc3cc(NS(=O)(=O)N4CCOCC4)ccc3[nH]2)CC1 |
| 130 to 132 °C | Cc1cc(=O)n2cccc(OCc3ccccc3C(F)(F)F)c2n1 |
| > 300 °C | CC(=O)c1c[nH]c2cc(-c3ccncc3)ccc2c1=O |
| 125 to 127 °C | CC(C)(C)c1nnc2ccc(OCCCN3CCC(OC(c4ccccc4)c4ccccc4)CC3)nn12 |
| 222 to 224 °C | CC(C)(C)c1ccc(S(=O)(=O)Nc2nc(-c3ncccn3)nc(OCCOc3ncc(Br)cn3)c2-c2cccs2)cc1 |
| 87 to 91 °C | COc1ccccc1N(CCN1CCC(C(=O)c2ccc(F)cc2)CC1)C(=O)c1ccc(CO)cc1 |
| 192 to 193 °C | CCN(CC)C(=O)Nc1ccc(S(=O)(=O)N2C(=O)C(NCCO)(c3ccccc3Cl)c3cc(Cl)ccc32)cc1 (stereo not drawn) |
| 135 to 136 °C | COc1ccc(C2CN(Cc3ccc4ccccc4n3)C(=O)N(Cc3ccc4ccccc4n3)C2)cc1OC1CC2CCC1C2 (stereo not drawn) |
| 195 to 201 °C | COc1cc(/C=C/C(=O)Nc2ccccc2C(=O)O)ccc1OCCN1CCOCC1 |
| 168 to 170 °C | C#CC[C@H](c1nc2cc(Cl)ccc2c(=O)n1Nc1ccccc1)N(CCCN)C(=O)c1cccc(F)c1F |
| 64.4 °C | N[C@@H]1CN2C(=O)N(c3cc(Cl)cc(Cl)c3)C(=O)[C@@]2(Cc2ccc(Br)cc2)C1 |
| 98 to 99 °C | Cc1ccn(-c2ccc(S(C)(=O)=O)cc2)c1-c1ccc(OC(F)F)cc1 |
| 118 to 120 °C | COC(=O)C(=O)c1ccc(OCCOc2ccc3ccccc3c2)cc1C |
